Test results taken from patent US4713374A, “Ganglioside derivatives” (priority 1984, dated 1987).

Key:
[1] = set-up: species or system Swiss mice; conditions: mouse, in vivo, iv
Description: Labelled ganglioside is prepared as described by Suzuki et al. [J. Lipid Res. 13, 687-690 (1972)] and modified by Ghidoni et al. [Ital. J. Biochem. 23, 320-328 (1974)]. The ethyl and isopropyl esters are prepared by esterification of this labelled ganglioside. The specific radioactivity is measured both of the ganglioside and esters.
Swiss mice obtained from Charles River (Calco), weighing about 20-25 g were treated by intravenous route with 10 μC of the products. 2-4-8-12-16 hours after administration, the animals were sacrificed by decapitation and their blood was gathered in heparinized flasks. The nonvolatile radioactivity was determined on blood samples by means of a Packard TRICARB scintillator and then identified with reference to ^3 H ganglioside and to the esters by TLC.

PC12 cells = assay: Neurite sprouting in PC12 cells; format: cell-based; conditions: 10^-6 M, serum-free vehicle with 50 ng/ml NGF, third day; controls 21.5
Description: The cells are then washed three times in a serum-free vehicle. […] This effect is evaluated by counting the number of cells with neurites at the third day.

[2] = system: (Na^+, K^+) ATPase of the neuronal membrane; assay: (Na+,K+)ATPase activity of the neuronal membrane (rat brain P2 fraction); format: biochemical; conditions: concentration 50 (50 nM), incubation with neuronal membranes 37° C. two hours; controls 100; 120 min
Description: a. Preparation of the raw mitochondrial fraction of rat brain (Fraction P2):
The procedure used in the preparation of P2 fraction was taken from Morgan e coll., Biochem. Biophys. Acta 241, 37 (1971). (The various operations were carried out at 0° to 4° C.; the xg values are average centrifugal forces).
Adult male Sprague Dawley rats (supplied by Charles River) (body weight 150-175 g) were decapitated and their brains were immediately removed and washed in an ice cold isotonic solution. After excision of the cerebellum, the brains were homogenized by effecting 12 up and down movements in a motor-driven glass and Telfon homogenizer (declared radial clearance 0.25 mm; 800 r.p.m.) using 4 vol. of homogenizing solution (0.32M saccharose containing 1 mM potassium phosphate buffer and […] of disodium EDTA, pH 7.27). The homogenized substance, filtered through four layers of fine gauze, was centrifuged at 1000 r.p.m. for 15 minutes. The resulting pellet was washed with the same initial volume of homogenizing solution and centrifuged as described above. The gathered supernatants were centrifuged at 17,500 r.p.m. for 25 minutes (these conditions of gravitational centrifugal force were used to obtain the maximum enrichment of nervous terminations in the fraction) and the pellet was washed four times in 9 volumes (each time) of homogenizing solution and centrifuged (17,500 r.p.m. for 25 minutes).
The final pellet, known as "P2 fraction" contains as its principal component, whole mitochondria and nervous terminations. The final pellet was homogeneously resuspended with a suitable volume of homogenizing solution with a glass and Teflon homogenizer, and used immediately for the test. […]
ATPase activity was measured by spectrophotometry according to Wallick and coll. […] The (Na^+, K^+)ATPase activity is determined by the difference between the total ATPase activity and the dependent ATPase Mg^2+ activity measured in the presence of 3×10^-5 M of Ouabain. […] The ATPase activity was expressed as International Unit (I.U.) (μmoles hydrolized ATP/mg protein/min). […]

Structure (SMILES)	t/2 of first phase of blood kinetic curve [1]	% increase in (Na^+, K^+) ATPase activity [2]	% of the no. of cells with neurites at 3rd day (PC12 cells)
CCCCCCCCCCCCC/C=C/[C@@H](O)[C@H](CO[C@@H]1O[C@H](CO)[C@@H](O[C@@H]2O[C@H](CO)[C@H](O[C@@H]3O[C@H](CO)[C@H](O)[C@H](O[C@@H]4O[C@H](CO)[C@H](O)[C@H](O)[C@H]4O)[C@H]3NC(C)=O)[C@H](O[C@]3(C(N)=O)C[C@H](O)[C@@H](NC(C)=O)[C@H]([C@H](O)[C@H](O)CO)O3)[C@H]2O)[C@H](O)[C@H]1O)NC(=O)CCCCCCCCCCCCCCCCC [Amide of GM1, Amide of the ganglioside GM1]	–	128%	33.3%
CCCCCCCCCCCCC/C=C/[C@@H](OC(C)=O)[C@H](CO[C@@H]1O[C@H](COC(C)=O)[C@@H](O[C@@H]2O[C@H](COC(C)=O)[C@H](O[C@@H]3O[C@H](COC(C)=O)[C@H](OC(C)=O)[C@H](O[C@@H]4O[C@H](COC(C)=O)[C@H](OC(C)=O)[C@H](OC(C)=O)[C@H]4OC(C)=O)[C@H]3NC(C)=O)[C@H](O[C@]3(C(=O)O)C[C@H](OC(C)=O)[C@@H](NC(C)=O)[C@H]([C@H](OC(C)=O)[C@@H](COC(C)=O)OC(C)=O)O3)[C@H]2OC(C)=O)[C@H](OC(C)=O)[C@H]1OC(C)=O)NC(=O)CCCCCCCCCCCCCCCCC [Peracetylated GM1, Peracetylated derivative of the ganglioside GM1]	–	–	30.2%
CCCCCCCCCCCCC/C=C/[C@@H](O)[C@H](CO[C@@H]1O[C@H](CO)[C@@H](O[C@@H]2O[C@H](CO)[C@H](O[C@@H]3O[C@H](CO)[C@H](O)[C@H](O[C@@H]4O[C@H](CO)[C@H](O)[C@H](O)[C@H]4O)[C@H]3NC(C)=O)[C@H](O[C@]3(C(=O)N(C)C)C[C@H](O)[C@@H](NC(C)=O)[C@H]([C@H](O)[C@H](O)CO)O3)[C@H]2O)[C@H](O)[C@H]1O)NC(=O)CCCCCCCCCCCCCCCCC [Dimethylamide of GM1, Dimethylamide of the ganglioside GM1]	–	–	34.3%
CCCCCCCCCCCCC/C=C/[C@@H](O)[C@H](CO[C@@H]1O[C@H](CO)[C@@H](O[C@@H]2O[C@H](CO)[C@H](O[C@@H]3O[C@H](CO)[C@H](O)[C@H](O[C@@H]4O[C@H](CO)[C@H](O)[C@H](O)[C@H]4O)[C@H]3NC(C)=O)[C@H](O[C@]3(C(=O)NC(C)C)C[C@H](O)[C@@H](NC(C)=O)[C@H]([C@H](O)[C@H](O)CO)O3)[C@H]2O)[C@H](O)[C@H]1O)NC(=O)CCCCCCCCCCCCCCCCC [Isopropylamide of GM1, Isopropylamide of the ganglioside GM1]	–	–	31.4%

The next lines start with results.

t/2 of first phase of blood kinetic curve [1]	% increase in (Na^+, K^+) ATPase activity [2]	Structure (SMILES)	% of the no. of cells with neurites at 3rd day (PC12 cells)
about three	–	CCCCCCCCCCCCC/C=C/[C@@H](O)[C@H](CO[C@@H]1O[C@H](CO)[C@@H](O[C@@H]2O[C@H](CO)[C@H](O[C@@H]3O[C@H](CO)[C@H](O)[C@H](O[C@@H]4O[C@H](CO)[C@H](O)[C@H](O)[C@H]4O)[C@H]3NC(C)=O)[C@H](O[C@]3(C(=O)O)C[C@H](O)[C@@H](NC(C)=O)[C@H]([C@H](O)[C@H](O)CO)O3)[C@H]2O)[C@H](O)[C@H]1O)NC(=O)CCCCCCCCCCCCCCCCC [tritiated ganglioside]	–
–	133%	CCCCCCCCCCCCC/C=C/[C@@H](O)[C@H](CO[C@@H]1O[C@H](CO)[C@@H](O[C@@H]2O[C@H](CO)[C@H](O[C@@H]3O[C@H](CO)[C@H](O)[C@H](O[C@@H]4O[C@H](CO)[C@H](O)[C@H](O)[C@H]4O)[C@H]3NC(C)=O)[C@H](O[C@]3(C(=O)O)C[C@H](O)[C@@H](NC(C)=O)[C@H]([C@H](O)[C@H](O)CO)O3)[C@H]2O)[C@H](O)[C@H]1O)NC(=O)CCCCCCCCCCCCCCCCC [Monosialoganglioside GM1, ganglioside GM1, reference compound]	34.8%
–	132%	CCCCCCCCCCCCC/C=C/[C@@H](O)[C@H](CO[C@@H]1O[C@H](CO)[C@@H](O[C@@H]2O[C@H](CO)[C@H](O[C@@H]3O[C@H](CO)[C@H](O)[C@H](O[C@@H]4O[C@H](CO)[C@H](O)[C@H](O)[C@H]4O)[C@H]3NC(C)=O)[C@H](O[C@]3(C(=O)OC)C[C@H](O)[C@@H](NC(C)=O)[C@H]([C@H](O)[C@H](O)CO)O3)[C@H]2O)[C@H](O)[C@H]1O)NC(=O)CCCCCCCCCCCCCCCCC [Methylic ester of GM1, Methyl ester of the ganglioside GM1]	35.7%
